Test results published in patent US20020137929A1, “1 - (3-heterocyclylphenyl) isothiourea, -isourea, -guanidine and -amidine herbicidal agents” (Intellectual Property Department, BASF Aktiengesellschaft, priority 1998, published 2002).

Tests used:
CASOB (Sicklepod) [1] = assay: Preemergence herbicidal evaluation; format: in vivo, Cassia obtusifolia; details: rated 4-5 weeks after treatment
Method in brief: (§1)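 Visual 0-9 rating vs control (stand, vigor, malformation, size, chlorosis, overall appearance), scored 4-5 wk after spraying. Seeded soil cups were treated preemergence with compound in aqueous acetone, ~0.0156-0.500 kg/ha equivalent.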

AMBEL (Ragweed, Common) = assay: Postemergence herbicidal evaluation; format: in vivo, Ambrosia artemisifolia; details: postemergence
Method in brief: (§2)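 Seedlings grown about two weeks were sprayed at 40 psi with compound dispersed in 50/50 acetone/water plus 0.5% TWEEN 20, at about 0.0156 to 0.500 kg/ha. Plants were kept in the greenhouse and scored 4–5 weeks later on a 0–9 visual scale against untreated controls.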

[2] = tested on: IPOHE (Morningglory, Ivyleaf); assay: Preemergence herbicidal evaluation; format: in vivo, Ipomoea hederacea; details: rated 4-5 weeks after treatment
Method in brief: as §1

[3] = tested on: TRZAWR (Wheat, Winter, cv Riband); assay: Preemergence herbicidal evaluation; format: in vivo, Triticum aestivum; details: rated 4-5 weeks after treatment
Method in brief: as §1

[4] = tested on: IPOHE (Morningglory, Ivyleaf); assay: Postemergence herbicidal evaluation; format: in vivo, Ipomoea hederacea; details: postemergence
Method in brief: as §2

ZEAMX (Corn, Field) = assay: Preemergence herbicidal evaluation; format: in vivo, Zea mays; details: rated 4-5 weeks after treatment
Method in brief: as §1

ECHCG (Barnyardgrass) = assay: Preemergence herbicidal evaluation; format: in vivo, Echinochloa crus-galli; details: rated 4-5 weeks after treatment
Method in brief: as §1

MOOVA (Monochoria) = assay: Preemergence weed control under flooded paddy conditions; format: in vivo, Monochoria vaginalis; details: rated 3-4 weeks after treatment
Method in brief: (§3)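 Herbicidal effect is scored visually on a 0-9 scale against an untreated control, three to four weeks after compounds are pipetted into the flood water (1.5 to 3 cm deep) over seeds planted in silt loam at 0.5 cm depth. Rates: about 0.0313 to 0.500 kg/ha.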

[5] = tested on: SAGPY (Arrowhead (Pygmaea)); assay: as above; format: in vivo, Sagittaria pygmaea; details: rated 3-4 weeks after treatment
Method in brief: as §3

[6] = tested on: GLXMAW (Soybean, Williams); assay: Preemergence herbicidal evaluation; format: in vivo, Glycine max, (L.) Merr. cv Williams; details: rated 4-5 weeks after treatment
Method in brief: as §1

GALAP (Galium) = assay: Postemergence herbicidal evaluation; format: in vivo, Galium aparine; details: postemergence
Method in brief: as §2

ABUTH (Velvetleaf) = assay: Preemergence herbicidal evaluation; format: in vivo, Abutilon theophrasti; details: rated 4-5 weeks after treatment
Method in brief: as §1

CASOB (Sicklepod) [7] = assay: Postemergence herbicidal evaluation; format: in vivo, Cassia obtusifolia; details: postemergence
Method in brief: as §2

[8] = rate 0.1250 kg/ha, rating scale 0-9
[9] = rate 0.2500 kg/ha, rating scale 0-9

CCOC(=O)CN1C(=O)C(Cl)SC1=Nc1cc(-n2c(=O)cc(C(F)(F)F)n(C)c2=O)c(F)cc1Cl (centres unmarked) [Compound 126, Ethyl 5-chloro-2-{{2-chloro-5-[3,6-dihydro-3-methyl-2,6-dioxo-4-(trifluoromethyl)-1(2H)-pyrimidinyl]-4-fluorophenyl}imino}-4-oxo-3-thiazolidineacetate]
Preemergence herbicidal rating CASOB (CASOB (Sicklepod) [1]; rate 0.0625 kg/ha): 0.0 | Preemergence herbicidal rating CASOB (CASOB (Sicklepod) [1]; rate 0.1250 kg/ha): 0.0 | Preemergence herbicidal rating CASOB (CASOB (Sicklepod) [1]; rate 0.2500 kg/ha): 0.0 | Preemergence herbicidal rating CASOB (CASOB (Sicklepod) [1]; rate 0.5000 kg/ha): 3.0 | herbicidal rating AMBEL (AMBEL (Ragweed, Common); rate 0.0156 kg/ha): 5.0 | herbicidal rating AMBEL (AMBEL (Ragweed, Common); rate 0.0313 kg/ha): 9.0 | herbicidal rating AMBEL (AMBEL (Ragweed, Common); rate 0.0625 kg/ha): 9.0 | herbicidal rating AMBEL (AMBEL (Ragweed, Common); rate 0.1250 kg/ha): 9.0 | Preemergence herbicidal rating IPOHE ([2]; rate 0.0625 kg/ha): 0.0 | Preemergence herbicidal rating IPOHE ([2]; rate 0.1250 kg/ha): 1.0 | Preemergence herbicidal rating IPOHE ([2]; rate 0.2500 kg/ha): 1.0 | Preemergence herbicidal rating IPOHE ([2]; rate 0.5000 kg/ha): 9.0 | Preemergence herbicidal rating TRZAWR ([3]; rate 0.0625 kg/ha): 0.0 | Preemergence herbicidal rating TRZAWR ([3]; rate 0.1250 kg/ha): 0.0 | Preemergence herbicidal rating TRZAWR ([3]; rate 0.2500 kg/ha): 0.0 | Preemergence herbicidal rating TRZAWR ([3]; rate 0.5000 kg/ha): 0.0 | herbicidal rating IPOHE ([4]; rate 0.0156 kg/ha): 9.0 | herbicidal rating IPOHE ([4]; rate 0.0313 kg/ha): 9.0 | herbicidal rating IPOHE ([4]; rate 0.0625 kg/ha): 9.0 | herbicidal rating IPOHE ([4]; rate 0.1250 kg/ha): 9.0 | Preemergence herbicidal rating ZEAMX (ZEAMX (Corn, Field); rate 0.0625 kg/ha): 0.0 | Preemergence herbicidal rating ZEAMX (ZEAMX (Corn, Field); rate 0.1250 kg/ha): 2.0 | Preemergence herbicidal rating ZEAMX (ZEAMX (Corn, Field); rate 0.2500 kg/ha): 4.0 | Preemergence herbicidal rating ZEAMX (ZEAMX (Corn, Field); rate 0.5000 kg/ha): 8.0 | Preemergence herbicidal rating ECHCG (ECHCG (Barnyardgrass); rate 0.0625 kg/ha): 0.0 | Preemergence herbicidal rating ECHCG (ECHCG (Barnyardgrass); rate 0.1250 kg/ha): 0.0 | Preemergence herbicidal rating ECHCG (ECHCG (Barnyardgrass); rate 0.2500 kg/ha): 0.0 | Preemergence herbicidal rating ECHCG (ECHCG (Barnyardgrass); rate 0.5000 kg/ha): 2.0 | herbicidal effect rating, MOOVA (MOOVA (Monochoria); 0.0313 kg/ha): 3.0 | herbicidal effect rating, MOOVA (MOOVA (Monochoria); 0.0625 kg/ha): 4.0 | herbicidal effect rating, MOOVA (MOOVA (Monochoria); 0.1250 kg/ha): 6.0 | herbicidal effect rating, MOOVA (MOOVA (Monochoria); 0.2500 kg/ha): 7.0 | herbicidal effect rating, SAGPY ([5]; 0.0313 kg/ha): 0.0 | herbicidal effect rating, SAGPY ([5]; 0.0625 kg/ha): 0.0 | herbicidal effect rating, SAGPY ([5]; 0.1250 kg/ha): 3.0 | herbicidal effect rating, SAGPY ([5]; 0.2500 kg/ha): 3.0 | Preemergence herbicidal rating GLXMAW ([6]; rate 0.0625 kg/ha): 0.0 | Preemergence herbicidal rating GLXMAW ([6]; rate 0.1250 kg/ha): 2.0 | Preemergence herbicidal rating GLXMAW ([6]; rate 0.2500 kg/ha): 3.0 | Preemergence herbicidal rating GLXMAW ([6]; rate 0.5000 kg/ha): 7.0 | herbicidal rating GALAP (GALAP (Galium); rate 0.0156 kg/ha): 0.0 | herbicidal rating GALAP (GALAP (Galium); rate 0.0313 kg/ha): 0.0 | herbicidal rating GALAP (GALAP (Galium); rate 0.0625 kg/ha): 0.0 | herbicidal rating GALAP (GALAP (Galium); rate 0.1250 kg/ha): 3.0 | Preemergence herbicidal rating ABUTH (ABUTH (Velvetleaf); rate 0.0625 kg/ha): 5.0 | Preemergence herbicidal rating ABUTH (ABUTH (Velvetleaf); rate 0.1250 kg/ha): 5.0 | Preemergence herbicidal rating ABUTH (ABUTH (Velvetleaf); rate 0.2500 kg/ha): 9.0 | Preemergence herbicidal rating ABUTH (ABUTH (Velvetleaf); rate 0.5000 kg/ha): 9.0 | herbicidal rating CASOB (CASOB (Sicklepod) [7]; rate 0.0156 kg/ha): 0.0 | herbicidal rating CASOB (CASOB (Sicklepod) [7]; rate 0.0313 kg/ha): 0.0 | herbicidal rating CASOB (CASOB (Sicklepod) [7]; rate 0.0625 kg/ha): 2.0 | herbicidal rating CASOB (CASOB (Sicklepod) [7]; rate 0.1250 kg/ha): 4.0

COC(=O)CSCCN1C(=O)CSC1=Nc1cc(-n2c(=O)cc(C(F)(F)F)n(C)c2=O)c(F)cc1Cl [Compound 158, Methyl {{2-{2-{{2-chloro-5-[3,6-dihydro-3-methyl-2,6-dioxo-4-(trifluoromethyl)-1(2H)-pyrimidinyl]-4-fluorophenyl}imino}-4-oxo-3-thiazolidinyl}ethyl}-thio}acetate]
Preemergence herbicidal rating CASOB (CASOB (Sicklepod) [1]; 0.0156 kg/ha): 1.0 | Preemergence herbicidal rating CASOB (CASOB (Sicklepod) [1]; 0.0313 kg/ha): 3.0 | Preemergence herbicidal rating CASOB (CASOB (Sicklepod) [1]; 0.0625 kg/ha): 4.0 | Preemergence herbicidal rating CASOB (CASOB (Sicklepod) [1]; [8]): 9.0 | Preemergence herbicidal rating CASOB (CASOB (Sicklepod) [1]; [9]): 5.0 | herbicidal rating AMBEL (AMBEL (Ragweed, Common); rate 0.0156 kg/ha): 6.0 | herbicidal rating AMBEL (AMBEL (Ragweed, Common); rate 0.0313 kg/ha): 7.0 | herbicidal rating AMBEL (AMBEL (Ragweed, Common); rate 0.0625 kg/ha): 9.0 | Preemergence herbicidal rating IPOHE ([2]; 0.0156 kg/ha): 1.0 | Preemergence herbicidal rating IPOHE ([2]; 0.0313 kg/ha): 4.0 | Preemergence herbicidal rating IPOHE ([2]; 0.0625 kg/ha): 7.0 | Preemergence herbicidal rating IPOHE [2, 8]: 9.0 | Preemergence herbicidal rating IPOHE [2, 9]: 9.0 | Preemergence herbicidal rating TRZAWR ([3]; 0.0156 kg/ha): 1.0 | Preemergence herbicidal rating TRZAWR ([3]; 0.0313 kg/ha): 4.0 | Preemergence herbicidal rating TRZAWR ([3]; 0.0625 kg/ha): 5.0 | Preemergence herbicidal rating TRZAWR [3, 8]: 7.0 | Preemergence herbicidal rating TRZAWR [3, 9]: 7.0 | herbicidal rating IPOHE ([4]; rate 0.0156 kg/ha): 9.0 | herbicidal rating IPOHE ([4]; rate 0.0313 kg/ha): 9.0 | herbicidal rating IPOHE ([4]; rate 0.0625 kg/ha): 9.0 | Preemergence herbicidal rating ZEAMX (ZEAMX (Corn, Field); 0.0156 kg/ha): 5.0 | Preemergence herbicidal rating ZEAMX (ZEAMX (Corn, Field); 0.0313 kg/ha): 7.0 | Preemergence herbicidal rating ZEAMX (ZEAMX (Corn, Field); 0.0625 kg/ha): 8.0 | Preemergence herbicidal rating ZEAMX (ZEAMX (Corn, Field); [8]): 9.0 | Preemergence herbicidal rating ZEAMX (ZEAMX (Corn, Field); [9]): 9.0 | Preemergence herbicidal rating ECHCG (ECHCG (Barnyardgrass); 0.0156 kg/ha): 2.0 | Preemergence herbicidal rating ECHCG (ECHCG (Barnyardgrass); 0.0313 kg/ha): 7.0 | Preemergence herbicidal rating ECHCG (ECHCG (Barnyardgrass); 0.0625 kg/ha): 9.0 | Preemergence herbicidal rating ECHCG (ECHCG (Barnyardgrass); [8]): 9.0 | Preemergence herbicidal rating ECHCG (ECHCG (Barnyardgrass); [9]): 9.0 | herbicidal effect rating, MOOVA (MOOVA (Monochoria); 0.0313 kg/ha): 9.0 | herbicidal effect rating, MOOVA (MOOVA (Monochoria); 0.0625 kg/ha): 9.0 | herbicidal effect rating, MOOVA (MOOVA (Monochoria); 0.1250 kg/ha): 9.0 | herbicidal effect rating, MOOVA (MOOVA (Monochoria); 0.2500 kg/ha): 9.0 | herbicidal effect rating, SAGPY ([5]; 0.0313 kg/ha): 4.0 | herbicidal effect rating, SAGPY ([5]; 0.0625 kg/ha): 5.0 | herbicidal effect rating, SAGPY ([5]; 0.1250 kg/ha): 6.0 | herbicidal effect rating, SAGPY ([5]; 0.2500 kg/ha): 9.0 | Preemergence herbicidal rating GLXMAW ([6]; 0.0156 kg/ha): 1.0 | Preemergence herbicidal rating GLXMAW ([6]; 0.0313 kg/ha): 4.0 | Preemergence herbicidal rating GLXMAW ([6]; 0.0625 kg/ha): 6.0 | Preemergence herbicidal rating GLXMAW [6, 8]: 7.0 | Preemergence herbicidal rating GLXMAW [6, 9]: 9.0 | herbicidal rating GALAP (GALAP (Galium); rate 0.0156 kg/ha): 0.0 | herbicidal rating GALAP (GALAP (Galium); rate 0.0313 kg/ha): 2.0 | herbicidal rating GALAP (GALAP (Galium); rate 0.0625 kg/ha): 3.0 | Preemergence herbicidal rating ABUTH (ABUTH (Velvetleaf); 0.0156 kg/ha): 9.0 | Preemergence herbicidal rating ABUTH (ABUTH (Velvetleaf); 0.0313 kg/ha): 9.0 | Preemergence herbicidal rating ABUTH (ABUTH (Velvetleaf); 0.0625 kg/ha): 9.0 | Preemergence herbicidal rating ABUTH (ABUTH (Velvetleaf); [8]): 9.0 | Preemergence herbicidal rating ABUTH (ABUTH (Velvetleaf); [9]): 9.0 | herbicidal rating CASOB (CASOB (Sicklepod) [7]; rate 0.0156 kg/ha): 4.0 | herbicidal rating CASOB (CASOB (Sicklepod) [7]; rate 0.0313 kg/ha): 4.0 | herbicidal rating CASOB (CASOB (Sicklepod) [7]; rate 0.0625 kg/ha): 9.0
